From patent US9655887B2, “Pharmaceutical composition and the use thereof, and application regime of said pharmaceutical composition for on-demand contraception” (BAYER PHARMA AKTIENGESELLSCHAFT, priority 2013, dated 2017)

What follows are compounds tested against EP2 subtype of the human PGE2 receptor (hEP2 receptor) (Homo sapiens, UniProt P43116) (assay: cAMP antagonism test, human prostaglandin E2 (subtype EP2) receptor signal).
Format: cell-based
Excerpt: 1. Detection of Antagonism to the Human Prostaglandin E2 (Subtype EP2) Receptor Signal
The binding of PGE2 to the EP2 subtype of the human PGE2 receptor induces the activation of membrane-located adenylate cyclases and leads to the formation of cAMP. In the presence of the phosphodiesterase inhibitor IBMX, the cAMP accumulated owing to this stimulation and released by cell lysis is used in a competitive detection method. In this test, the cAMP present in the lysate competes with a fluorescence-labelled cAMP (cAMP-d2) for binding to an Eu cryptate-labelled anti-cAMP antibody.
In the absence of cellular cAMP, a maximal signal is produced, which is attributable to the binding of this cAMP-d2 molecule to the antibody. After excitation of the […] at 337 nm, there is a fluorescence resonance energy transfer (FRET) to the Eu cryptate molecules of the anti-cAMP antibody (labelled therewith), followed by a long-lasting emission signal at 665 nm (and at […]). Both signals are measured in a suitable measurement instrument with a time delay, i.e. after decay of the background fluorescence. Any increase in the low FRET signal caused by prostaglandin E2 administration (measured as well ratio change=emission665nm/emission620nm*10000) indicates the action of antagonists.
1.2.1. Test for Antagonism (Data Per Well of a 384-Well Plate):
To a test plate with the substance solutions already added (0.05 μl; 100% DMSO, concentration range from 0.8 nM-16.5 nM) were added 4 μl of a cAMP-d2/cell suspension (625000 cells/ml). After a 20-minute preincubation at room temperature (RT), 2 μl of a 3×PGE2 solution (1.5 nM, in PBS-IBMX) were added and incubated in the presence of the agonist for a further 60 mins at RT (volume: […]). Next the reaction was stopped by addition of 2 μl of lysis buffer and incubated for a further 20 mins at RT before the actual measurement (volume: ˜8 μl).

Sequence of EP2 subtype of the human PGE2 receptor (hEP2 receptor) (P43116 whole entry): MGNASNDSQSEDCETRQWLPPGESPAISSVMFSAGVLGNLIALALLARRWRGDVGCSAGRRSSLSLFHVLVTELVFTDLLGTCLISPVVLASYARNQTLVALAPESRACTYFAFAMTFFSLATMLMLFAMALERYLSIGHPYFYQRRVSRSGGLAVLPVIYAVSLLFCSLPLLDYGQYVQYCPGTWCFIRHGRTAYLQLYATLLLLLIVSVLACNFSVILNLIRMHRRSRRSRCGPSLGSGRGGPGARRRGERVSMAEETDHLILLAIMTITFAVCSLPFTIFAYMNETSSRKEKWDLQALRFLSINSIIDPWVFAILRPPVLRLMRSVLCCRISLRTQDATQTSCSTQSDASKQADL

Structure (SMILES) | IC50
COCCNC(=O)c1ccc2nn(CC3CCN(C(=O)c4ccc(-c5ccccc5OC(F)(F)F)cc4F)CC3)cc2c1C [Example E44, 2-[(1-{[3-fluoro-2′-(trifluoromethoxy)biphenyl-4-yl]carbonyl}piperidin-4-yl)methyl]-N-(2-methoxyethyl)-4-methyl-2H-indazole-5-carboxamide] | > 50 nM
COCCNC(=O)c1ccc2nn(CC3CCN(C(=O)c4ccc(-c5ccccc5F)cc4)CC3)cc2c1C [Example E45, 2-({1-[(2′-fluorobiphenyl-4-yl)carbonyl]piperidin-4-yl}methyl)-N-(2-methoxyethyl)-4-methyl-2H-indazole-5-carboxamide] | > 50 nM
COCCNC(=O)c1ccc2nn(CC3CCN(C(=O)c4ccc(-c5ccc(F)cc5F)cc4)CC3)cc2c1C [Example E46, 2-({1-[(2′,4′-difluorobiphenyl-4-yl)carbonyl]piperidin-4-yl}methyl)-N-(2-methoxy-ethyl)-4-methyl-2H-indazole-5-carboxamide] | > 50 nM
COCCNC(=O)c1ccc2nn(CC3CCN(C(=O)c4ccc(-c5ccccc5)c(F)c4)CC3)cc2c1C [Example E47, 2-({1-[(2-fluorobiphenyl-4-yl)carbonyl]piperidin-4-yl}methyl)-N-(2-methoxyethyl)-4-methyl-2H-indazole-5-carboxamide] | > 50 nM
COCCNC(=O)c1ccc2nn(CC3CCN(C(=O)c4ccc(-c5ccccc5C)cc4)CC3)cc2c1C [Example E48, N-(2-methoxyethyl)-4-methyl-2-({1-[(2′-methylbiphenyl-4-yl)carbonyl]piperidin-4-yl}-methyl)-2H-indazole-5-carboxamide] | > 50 nM
COCCNC(=O)c1ccc2nn(CC3CCN(C(=O)c4ccc(N5CCOCC5)cc4F)CC3)cc2c1C [Example E51, 2-({1-[2-fluoro-4-[morpholin-4-yl)benzoyl]piperidin-4-yl}methyl)-N-(2-methoxyethyl)-4-methyl-2H-indazole-5-carboxamide] | > 50 nM
COCCNC(=O)c1ccc2nn(CC3CCN(C(=O)c4ccc(Br)cc4)CC3)cc2c1C [Example E52, 2-{[1-(4-bromobenzoyl)piperidin-4-yl]methyl}-N-(2-methoxyethyl)-4-methyl-2H-indazole-5-carboxamide] | > 50 nM
COCCNC(=O)c1ccc2nn(CC3CCN(C(=O)c4ccc(OC(F)(F)F)cc4)CC3)cc2c1C [Example E53, N-(2-methoxyethyl)-4-methyl-2-({1-[4-(trifluoromethoxy)benzoyl]piperidin-4-yl}-methyl)-2H-indazole-5-carboxamide] | > 50 nM
COCCNC(=O)c1ccc2nn(CC3CCN(C(=O)c4ccc(Cl)cc4)CC3)cc2c1C [Example E54, 2-{[1-(4-chlorobenzoyl)piperidin-4-yl]methyl}-N-(2-methoxyethyl)-4-methyl-2H-indazole-5-carboxamide] | > 50 nM
COCCNC(=O)c1ccc2nn(CC3CCN(C(=O)c4ccc(SC(F)(F)F)cc4)CC3)cc2c1C [Example E55, N-(2-methoxyethyl)-4-methyl-2-[(1-{4-[(trifluoromethyl)sulphanyl]benzoyl}piperidin-4-yl)methyl]-2H-indazole-5-carboxamide] | > 50 nM
Cc1c(C(=O)NCCOCC2CC2)ccc2nn(CC3CCN(C(=O)c4ccc(Cl)cc4)CC3)cc12 [Example E59, 2-{[1-(4-chlorobenzoyl)piperidin-4-yl]methyl}-N-[2-(cyclopropylmethoxy)ethyl]-4-methyl-2H-indazole-5-carboxamide] | > 50 nM
Cc1ccc(C(=O)N2CCC(Cn3cc4c(C)c(C(=O)NCCOCC5CC5)ccc4n3)CC2)cc1 [Example E60, N-[2-(cyclopropylmethoxy)ethyl]-4-methyl-2-{[1-(4-methylbenzoyl)piperidin-4-yl]-methyl}-2H-indazole-5-carboxamide] | > 50 nM
Cc1c(C(=O)NCCOCC2CC2)ccc2nn(CC3CCN(C(=O)c4ccc(Oc5ccc(F)cc5)cc4)CC3)cc12 [Example E61, N-[2-(cyclopropylmethoxy)ethyl]-2-({1-[4-(4-fluorophenoxy)benzoyl]piperidin-4-yl}-methyl)-4-methyl-2H-indazole-5-carboxamide] | > 50 nM
Cc1c(C(=O)NCCOCC2CC2)ccc2nn(CC3CCN(C(=O)c4ccc(C(F)(F)F)cc4)CC3)cc12 [Example E62, N-[2-(cyclopropylmethoxy)ethyl]-4-methyl-2-({1-[4-(trifluoromethyl)benzoyl]piperidin-4-yl}methyl)-2H-indazole-5-carboxamide] | > 50 nM
Cc1c(C(=O)NCCOCC2CC2)ccc2nn(CC3CCN(C(=O)c4ccc(-c5ccc(F)cc5)cc4)CC3)cc12 [Example E63, N-[2-(cyclopropylmethoxy)ethyl]-2-({1-[(4′-fluorobiphenyl-4-yl)carbonyl]piperidin-4-yl}methyl)-4-methyl-2H-indazole-5-carboxamide] | > 50 nM
Cc1c(C(=O)NCCOCC2CC2)ccc2nn(CC3CCN(C(=O)c4ccc(C5CC5)cc4)CC3)cc12 [Example E64, 2-{[1-(4-cyclopropylbenzoyl)piperidin-4-yl]methyl}-N-[2-(cyclopropylmethoxy)ethyl]-4-methyl-2H-indazole-5-carboxamide] | > 50 nM
Cc1c(C(=O)NCCOCC(F)(F)F)ccc2nn(CC3CCN(C(=O)c4ccc(Cl)cc4)CC3)cc12 [Example E65, 2-{[1-(4-chlorobenzoyl)piperidin-4-yl]methyl}-4-methyl-N-[2-(2,2,2-trifluoroethoxy)-ethyl]-2H-indazole-5-carboxamide] | > 50 nM
Cc1ccc(C(=O)N2CCC(Cn3cc4c(C)c(C(=O)NCCOCC(F)(F)F)ccc4n3)CC2)cc1 [Example E66, 4-methyl-2-{[1-(4-methylbenzoyl)piperidin-4-yl]methyl}-N-[2-(2,2,2-trifluoroethoxy)-ethyl]-2H-indazole-5-carboxamide] | > 50 nM
Cc1c(C(=O)NCCOCC(F)(F)F)ccc2nn(CC3CCN(C(=O)c4ccc(Oc5ccc(F)cc5)cc4)CC3)cc12 [Example E67] | > 50 nM
Cc1c(C(=O)NCCOCC(F)(F)F)ccc2nn(CC3CCN(C(=O)c4ccc(C(F)(F)F)cc4)CC3)cc12 [Example E68, 4-methyl-N-[2-(2,2,2-trifluoroethoxy)ethyl]-2-({1-[4-(trifluoromethyl)benzoyl]-piperidin-4-yl}methyl)-2H-indazole-5-carboxamide] | > 50 nM
Cc1c(C(=O)NCCOCC(F)(F)F)ccc2nn(CC3CCN(C(=O)c4ccc(-c5ccc(F)cc5)cc4)CC3)cc12 [Example E69, 2-({1-[(4′-fluorobiphenyl-4-yl)carbonyl]piperidin-4-yl}methyl)-4-methyl-N-[2-(2,2,2-trifluoroethoxy)ethyl]-2H-indazole-5-carboxamide] | > 50 nM
Cc1c(C(=O)NCCOCC(F)(F)F)ccc2nn(CC3CCN(C(=O)c4ccc(C5CC5)cc4)CC3)cc12 [Example E70, 2-{[1-(4-cyclopropylbenzoyl)piperidin-4-yl]methyl}-4-methyl-N-[2-(2,2,2-trifluoro-ethoxy)ethyl]-2H-indazole-5-carboxamide] | > 50 nM
Cc1c(C(=O)NCCOC(C)C)ccc2nn(CC3CCN(C(=O)c4ccc(Cl)cc4)CC3)cc12 [Example E71, 2-{[1-(4-chlorobenzoyl)piperidin-4-yl]methyl}-N-(2-isopropoxyethyl)-4-methyl-2H-indazole-5-carboxamide] | > 50 nM
Cc1ccc(C(=O)N2CCC(Cn3cc4c(C)c(C(=O)NCCOC(C)C)ccc4n3)CC2)cc1 [Example E72, N-(2-isopropoxyethyl)-4-methyl-2-{[1-(4-methylbenzoyl)piperidin-4-yl]methyl}-2H-indazole-5-carboxamide] | > 50 nM
Cc1c(C(=O)NCCOC(C)C)ccc2nn(CC3CCN(C(=O)c4ccc(Oc5ccc(F)cc5)cc4)CC3)cc12 [Example E73, 2-({1-[4-(4-fluorophenoxy)benzoyl]piperidin-4-yl}methyl)-N-(2-isopropoxyethyl)-4-methyl-2H-indazole-5-carboxamide] | > 50 nM
Cc1c(C(=O)NCCOC(C)C)ccc2nn(CC3CCN(C(=O)c4ccc(C(F)(F)F)cc4)CC3)cc12 [Example E74, N-(2-isopropoxyethyl)-4-methyl-2-({1-[4-(trifluoromethyl)benzoyl]piperidin-4-yl}-methyl)-2H-indazole-5-carboxamide] | > 50 nM
Cc1c(C(=O)NCCOC(C)C)ccc2nn(CC3CCN(C(=O)c4ccc(-c5ccc(F)cc5)cc4)CC3)cc12 [Example E75, 2-({1-[(4′-fluorobiphenyl-4-yl)carbonyl]piperidin-4-yl}methyl)-N-(2-isopropoxyethyl)-4-methyl-2H-indazole-5-carboxamide] | > 50 nM
Cc1c(C(=O)NCCOC(C)C)ccc2nn(CC3CCN(C(=O)c4ccc(C5CC5)cc4)CC3)cc12 [Example E76, 2-{[1-(4-cyclopropylbenzoyl)piperidin-4-yl]methyl}-N-(2-isopropoxyethyl)-4-methyl-2H-indazole-5-carboxamide] | > 50 nM
